According to patent US20250034170A1, “SMALL MOLECULE MODULATORS OF GLUCOCEREBROSIDASE ACTIVITY AND USES THEREOF” (Vanqua Bio, Inc., priority 2021, published 2025):
pEC50: −log10 of the molar value.

target: T1, GCase (Homo sapiens, UniProt P04062); test: activation of GCase in a live cell PFB assay in HELA cells; type: cell-based; settings: activation of GCase, EC50 ranges
T1 construct: endogenous in cells; host or cells: HeLa cells
T1 sequence (P04062 40-536): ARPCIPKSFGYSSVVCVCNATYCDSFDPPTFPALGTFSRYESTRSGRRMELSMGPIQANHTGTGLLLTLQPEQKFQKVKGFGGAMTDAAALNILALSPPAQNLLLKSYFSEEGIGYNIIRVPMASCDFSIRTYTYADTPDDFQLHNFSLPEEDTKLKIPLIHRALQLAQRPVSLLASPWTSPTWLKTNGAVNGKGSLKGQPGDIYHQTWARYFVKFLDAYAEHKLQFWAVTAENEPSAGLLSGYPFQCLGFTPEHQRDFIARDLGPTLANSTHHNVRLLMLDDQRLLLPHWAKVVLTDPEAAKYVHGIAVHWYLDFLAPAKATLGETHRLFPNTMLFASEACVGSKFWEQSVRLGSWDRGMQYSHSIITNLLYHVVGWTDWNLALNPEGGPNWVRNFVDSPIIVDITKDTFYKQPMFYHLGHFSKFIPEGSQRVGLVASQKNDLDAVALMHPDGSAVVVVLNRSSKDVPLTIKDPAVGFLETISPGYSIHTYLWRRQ
Procedure: Exemplary compounds were evaluated for activation of GCase in a live cell PFB assay in HELA cells (essentially as described in Ysselstein et al., “LRRK2 kinase activity regulates lysosomal glucocerebrosidase in neurons derived from Parkinson's disease patients” Nature Communications (2019) 10:5570). […] EC50 ranges: A: <10 μM; B: >10-50 μM; C: >50-100 μM; D: >100 μM.

Structure (SMILES)	pEC50
FC(F)Cn1ncc2ncc(N3CCC4(C3)CN(c3ncc(C(F)(F)F)cn3)C4)nc21 [Cmpd 319]	4.30 to 5.00
FC(F)Cn1ncc2ncc(N3CCC4(CN(Cc5ccc(C(F)(F)F)nc5)C4)C3)nc21 [Cmpd 320]	> 5.00
FC(F)Cn1ncc2ncc(N3CCC4(CN(Cc5ccc(C(F)(F)F)cn5)C4)C3)nc21 [Cmpd 321]	> 5.00
O=C(c1ccc(C(F)(F)F)nc1)N1CC2(CCN(c3cnc4cnn(CC(F)F)c4n3)C2)C1 [Cmpd 322]	4.30 to 5.00
O=C(c1ccc(C(F)(F)F)cn1)N1CC2(CCN(c3cnc4cnn(CC(F)F)c4n3)C2)C1 [Cmpd 323]	< 4.00
O=C(c1cnc(C(F)(F)F)nc1)N1CC2(CCN(c3cnc4cnn(CC(F)F)c4n3)C2)C1 [Cmpd 325]	4.30 to 5.00
O=C(c1cnc(C(F)(F)F)nc1)N1CCC2(CC1)CN(c1cnc3cnn(CC(F)F)c3n1)C2 [Cmpd 329]	4.30 to 5.00
O=C(c1ccc(C(F)(F)F)cn1)N1CCC2(CC1)CN(c1cnc3cnn(CC(F)F)c3n1)C2 [Cmpd 330]	4.30 to 5.00
O=C1N(c2ccnc(C(F)(F)F)c2)CCC12CN(c1cnc3cnn(CC(F)F)c3n1)C2 [Cmpd 337]	> 5.00
O=C1CC2(CN(c3cnc4cnn(CC(F)F)c4n3)C2)CN1c1ccnc(C(F)(F)F)c1 [Cmpd 338]	4.30 to 5.00
O=C1N(c2cnc3cnn(CC(F)F)c3n2)CCC12CN(c1ccnc(C(F)(F)F)c1)C2 [Cmpd 339]	4.30 to 5.00
O=C1CC2(CN(c3ccnc(C(F)(F)F)c3)C2)CN1c1cnc2cnn(CC(F)F)c2n1 [Cmpd 340]	> 5.00
O=C1N(c2ccc(C(F)(F)F)cn2)CCCC12CN(c1cnc3cnn(CC(F)F)c3n1)C2 [Cmpd 341]	4.30 to 5.00
O=C1N(c2cnc3cnn(CC(F)F)c3n2)CCCC12CN(c1ccc(C(F)(F)F)nc1)C2 [Cmpd 342]	< 4.00
O=C1N(c2cnc3cnn(CC(F)F)c3n2)CCCC12CN(c1ccc(C(F)(F)F)cn1)C2 [Cmpd 343]	< 4.00
FC(F)(F)c1cc(N2CCC3(C2)CN(c2cnc4cnn(C5COC5)c4n2)C3)ccn1 [Cmpd 344]	> 5.00

Structure (SMILES)	pEC50
Cc1nn(C2COC2)c2nc(N3CC4(CCN(c5ccnc(C(F)(F)F)c5)C4)C3)cnc12 [Cmpd 345]	> 5.00
O=C1N(c2ccnc(C(F)(F)F)c2)CCC12CN(c1cnc3cnn(C4COC4)c3n1)C2 [Cmpd 346]	4.00 to 4.30
Cc1nn(C2COC2)c2nc(N3CC4(CCN(c5ccnc(C(F)(F)F)c5)C4=O)C3)cnc12 [Cmpd 347]	4.30 to 5.00
O=C1CC2(CN(c3cnc4cnn(C5COC5)c4n3)C2)CN1c1ccnc(C(F)(F)F)c1 [Cmpd 348]	4.30 to 5.00
Cc1nn(C2COC2)c2nc(N3CC4(CC(=O)N(c5ccnc(C(F)(F)F)c5)C4)C3)cnc12 [Cmpd 349]	4.30 to 5.00
FC(F)(F)Cn1ncc2ncc(N3CC4(CCN(c5ccnc(C(F)(F)F)c5)C4)C3)nc21 [Cmpd 350]	> 5.00
FC(F)Cn1ncc2cnc(N3CC4(CCN(c5ccnc(C(F)(F)F)c5)C4)C3)nc21 [Cmpd 351]	> 5.00
Cc1nn(CC(F)F)c2nc(N3CC4(CCN(c5ccnc(C(F)(F)F)c5)C4)C3)ncc12 [Cmpd 352]	> 5.00
Cc1nn(CC(F)F)c2nc(N3CC4(CCN(c5ccnc(C(F)(F)F)c5)C4)C3)cnc12 [Cmpd 353]	> 5.00
O=C1N(Cc2nc(C(F)(F)F)cs2)CCC12CCN(c1cnc3cnn(CC(F)F)c3n1)CC2 [Cmpd 365]	4.30 to 5.00
O=C(c1ccc(OC(F)(F)F)cc1)N1CC2(CCN(c3cnc4cnn(CC(F)F)c4n3)C2)C1 [Cmpd 370]	4.30 to 5.00
O=C(c1cccc(Cl)c1)N1CC2(CCN(c3cnc4cnn(CC(F)F)c4n3)C2)C1 [Cmpd 371]	> 5.00
O=S(=O)(c1ccc(C(F)(F)F)cc1)N1CC2(CCN(c3cnc4cnn(CC(F)F)c4n3)C2)C1 [Cmpd 372]	4.30 to 5.00
O=S(=O)(c1ccc(F)cc1)N1CC2(CCN(c3cnc4cnn(CC(F)F)c4n3)C2)C1 [Cmpd 373]	4.30 to 5.00
O=S(=O)(c1cccc(C(F)(F)F)c1)N1CC2(CCN(c3cnc4cnn(CC(F)F)c4n3)C2)C1 [Cmpd 374]	4.30 to 5.00

Other lines, results leading:

pEC50	Structure (SMILES)
4.30 to 5.00	O=C(c1cnc(C(F)(F)F)nc1)N1CCC2(CCN(c3cnc4cnn(CC(F)F)c4n3)CC2)C1 [Cmpd 324]
4.30 to 5.00	O=C(c1cnc(C(F)(F)F)nc1)N1CC2(CCN(c3cnc4cnn(CC(F)F)c4n3)CC2)C1 [Cmpd 326]
4.30 to 5.00	O=C(c1ccc(C(F)(F)F)nc1)N1CC2(CCN(c3cnc4cnn(CC(F)F)c4n3)CC2)C1 [Cmpd 327]
4.30 to 5.00	O=C(c1ccc(C(F)(F)F)cn1)N1CC2(CCN(c3cnc4cnn(CC(F)F)c4n3)CC2)C1 [Cmpd 328]
4.30 to 5.00	O=C1N(Cc2cncc(F)c2)CCC12CCN(c1cnc3cnn(CC(F)F)c3n1)CC2 [Cmpd 331]
> 5.00	O=C1N(Cc2cncc(C(F)(F)F)c2)CCC12CCN(c1cnc3cnn(CC(F)F)c3n1)CC2 [Cmpd 332]
> 5.00	O=C1N(Cc2cncc(Cl)c2)CCC12CCN(c1cnc3cnn(CC(F)F)c3n1)CC2 [Cmpd 333]
4.00 to 4.30	O=C1CC2(CCN(c3cnc4cnn(CC(F)F)c4n3)CC2)CN1Cc1cncc(F)c1 [Cmpd 334]
4.30 to 5.00	O=C1CC2(CCN(c3cnc4cnn(CC(F)F)c4n3)CC2)CN1Cc1cncc(C(F)(F)F)c1 [Cmpd 335]
4.30 to 5.00	O=C1CC2(CCN(c3cnc4cnn(CC(F)F)c4n3)CC2)CN1Cc1cncc(Cl)c1 [Cmpd 336]
> 5.00	O=C1N(Cc2cccc(C(F)(F)F)n2)CCC12CCN(c1cnc3cnn(CC(F)F)c3n1)CC2 [Cmpd 354]
> 5.00	O=C1N(Cc2cc(C(F)(F)F)ccn2)CCC12CCN(c1cnc3cnn(CC(F)F)c3n1)CC2 [Cmpd 355]
4.30 to 5.00	CCOc1ccc(CN2CCC3(CCN(c4cnc5cnn(CC(F)F)c5n4)CC3)C2=O)cn1 [Cmpd 356]
> 5.00	O=C1N(Cc2ccnc(C(F)(F)F)c2)CCC12CCN(c1cnc3cnn(CC(F)F)c3n1)CC2 [Cmpd 357]
> 5.00	O=C1N(Cc2cc(F)cc(F)c2)CCC12CCN(c1cnc3cnn(CC(F)F)c3n1)CC2 [Cmpd 358]
> 5.00	O=C1CC2(CCN(c3cnc4cnn(CC(F)F)c4n3)CC2)CN1Cc1cc(C(F)(F)F)ccn1 [Cmpd 359]
> 5.00	O=C1CC2(CCN(c3cnc4cnn(CC(F)F)c4n3)CC2)CN1Cc1cccc(C(F)(F)F)n1 [Cmpd 360]
4.30 to 5.00	CCOc1ccc(CN2CC3(CCN(c4cnc5cnn(CC(F)F)c5n4)CC3)CC2=O)cn1 [Cmpd 361]
> 5.00	O=C1CC2(CCN(c3cnc4cnn(CC(F)F)c4n3)CC2)CN1Cc1ccnc(C(F)(F)F)c1 [Cmpd 362]
> 5.00	O=C1CC2(CCN(c3cnc4cnn(CC(F)F)c4n3)CC2)CN1Cc1cc(F)cc(F)c1 [Cmpd 363]
> 5.00	CCc1csc(CN2CCC3(CCN(c4cnc5cnn(CC(F)F)c5n4)CC3)C2=O)n1 [Cmpd 364]
> 5.00	O=C1N(Cc2cnc(C(F)(F)F)s2)CCC12CCN(c1cnc3cnn(CC(F)F)c3n1)CC2 [Cmpd 366]
4.30 to 5.00	CCc1csc(CN2CC3(CCN(c4cnc5cnn(CC(F)F)c5n4)CC3)CC2=O)n1 [Cmpd 367]
> 5.00	O=C1CC2(CCN(c3cnc4cnn(CC(F)F)c4n3)CC2)CN1Cc1nc(C(F)(F)F)cs1 [Cmpd 368]
4.30 to 5.00	O=C1CC2(CCN(c3cnc4cnn(CC(F)F)c4n3)CC2)CN1Cc1cnc(C(F)(F)F)s1 [Cmpd 369]
> 5.00	O=S(=O)(c1cccc(F)c1)N1CC2(CCN(c3cnc4cnn(CC(F)F)c4n3)C2)C1 [Cmpd 375]
